Tests used:
Muscle tissue [1] = test: Biodistribution in ICR mouse muscle at 5 to 10 uCi, iv after 2 mins; format: ADME, organism-based; details: in vivo
Blood [2] = test: Biodistribution in ICR mouse blood at 5 to 10 uCi, iv after 2 mins; format: ADME, organism-based; details: in vivo
Blood [3] = test: Biodistribution in ICR mouse blood at 5 to 10 uCi, iv after 2 hrs; format: ADME, organism-based; details: in vivo
Zone of skin [4] = test: Biodistribution in ICR mouse skin at 5 to 10 uCi, iv after 2 mins; format: ADME, organism-based; details: in vivo
Heart [5] = test: Biodistribution in ICR mouse heart at 5 to 10 uCi, iv after 1 hr; format: ADME, organism-based; details: in vivo
Spleen [6] = test: Biodistribution in ICR mouse spleen at 5 to 10 uCi, iv after 2 hrs; format: ADME, organism-based; details: in vivo
Lung [7] = test: Biodistribution in ICR mouse lung at 5 to 10 uCi, iv after 2 hrs; format: ADME, organism-based; details: in vivo
Lung [8] = test: Biodistribution in ICR mouse lung at 5 to 10 uCi, iv after 2 mins; format: ADME, organism-based; details: in vivo
Liver [9] = test: Biodistribution in ICR mouse liver at 5 to 10 uCi, iv after 1 hr; format: ADME, organism-based; details: in vivo
Kidney [10] = test: Biodistribution in ICR mouse kidney at 5 to 10 uCi, iv after 30 mins; format: ADME, organism-based; details: in vivo, 0.5 h
Liver [11] = test: Biodistribution in ICR mouse liver at 5 to 10 uCi, iv after 2 mins; format: ADME, organism-based; details: in vivo
Thyroid gland [12] = test: Biodistribution in ICR mouse thyroid at 5 to 10 uCi, iv after 30 mins; format: ADME, organism-based; details: in vivo, 0.5 h
Spleen [13] = test: Biodistribution in ICR mouse spleen at 5 to 10 uCi, iv after 2 mins; format: ADME, organism-based; details: in vivo
Brain [14] = test: Biodistribution in ICR mouse brain at 5 to 10 uCi, iv after 30 mins; format: ADME, organism-based; details: in vivo, 0.5 h
Spleen [15] = test: Biodistribution in ICR mouse spleen at 5 to 10 uCi, iv after 1 hr; format: ADME, organism-based; details: in vivo
Kidney [16] = test: Biodistribution in ICR mouse kidney at 5 to 10 uCi, iv after 2 mins; format: ADME, organism-based; details: in vivo
Zone of skin [17] = test: Biodistribution in ICR mouse skin at 5 to 10 uCi, iv after 1 hr; format: ADME, organism-based; details: in vivo
Brain [18] = test: Biodistribution in ICR mouse brain at 5 to 10 uCi, iv after 2 mins; format: ADME, organism-based; details: in vivo
Blood [19] = test: Biodistribution in ICR mouse blood at 5 to 10 uCi, iv after 30 mins; format: ADME, organism-based; details: in vivo, 0.5 h
Lung [20] = test: Biodistribution in ICR mouse lung at 5 to 10 uCi, iv after 1 hr; format: ADME, organism-based; details: in vivo
Muscle tissue [21] = test: Biodistribution in ICR mouse muscle at 5 to 10 uCi, iv after 2 hrs; format: ADME, organism-based; details: in vivo
Heart [22] = test: Biodistribution in ICR mouse heart at 5 to 10 uCi, iv after 2 hrs; format: ADME, organism-based; details: in vivo
Liver [23] = test: Biodistribution in ICR mouse liver at 5 to 10 uCi, iv after 2 hrs; format: ADME, organism-based; details: in vivo
Spleen [24] = test: Biodistribution in ICR mouse spleen at 5 to 10 uCi, iv after 30 mins; format: ADME, organism-based; details: in vivo, 0.5 h
Muscle tissue [25] = test: Biodistribution in ICR mouse muscle at 5 to 10 uCi, iv after 1 hr; format: ADME, organism-based; details: in vivo
Thyroid gland [26] = test: Biodistribution in ICR mouse thyroid at 5 to 10 uCi, iv after 2 hrs; format: ADME, organism-based; details: in vivo
Heart [27] = test: Biodistribution in ICR mouse heart at 5 to 10 uCi, iv after 30 mins; format: ADME, organism-based; details: in vivo, 0.5 h
Thyroid gland [28] = test: Biodistribution in ICR mouse thyroid at 5 to 10 uCi, iv after 2 mins; format: ADME, organism-based; details: in vivo
Blood [29] = test: Biodistribution in ICR mouse blood at 5 to 10 uCi, iv after 1 hr; format: ADME, organism-based; details: in vivo
Thyroid gland [30] = test: Biodistribution in ICR mouse thyroid at 5 to 10 uCi, iv after 1 hr; format: ADME, organism-based; details: in vivo
Kidney [31] = test: Biodistribution in ICR mouse kidney at 5 to 10 uCi, iv after 2 hrs; format: ADME, organism-based; details: in vivo
Kidney [32] = test: Biodistribution in ICR mouse kidney at 5 to 10 uCi, iv after 1 hr; format: ADME, organism-based; details: in vivo
Lung [33] = test: Biodistribution in ICR mouse lung at 5 to 10 uCi, iv after 30 mins; format: ADME, organism-based; details: in vivo, 0.5 h
Zone of skin [34] = test: Biodistribution in ICR mouse skin at 5 to 10 uCi, iv after 30 mins; format: ADME, organism-based; details: in vivo, 0.5 h
[35] = Partition coefficient, log P at pH 7.4; format: physicochemical; details: octanol/water
Zone of skin [36] = test: Biodistribution in ICR mouse skin at 5 to 10 uCi, iv after 2 hrs; format: ADME, organism-based; details: in vivo
Muscle tissue [37] = test: Biodistribution in ICR mouse muscle at 5 to 10 uCi, iv after 30 mins; format: ADME, organism-based; details: in vivo, 0.5 h
Brain [38] = test: Biodistribution in ICR mouse brain at 5 to 10 uCi, iv after 2 hrs; format: ADME, organism-based; details: in vivo
Heart [39] = test: Biodistribution in ICR mouse heart at 5 to 10 uCi, iv after 2 mins; format: ADME, organism-based; details: in vivo
Brain [40] = test: Biodistribution in ICR mouse brain at 5 to 10 uCi, iv after 1 hr; format: ADME, organism-based; details: in vivo
Brain [41] = test: Ratio of drug distribution in brain after 2 mins to 30 mins in ICR mouse at 5 to 10 uCi, iv; format: ADME, organism-based; details: in vivo
Liver [42] = test: Biodistribution in ICR mouse liver at 5 to 10 uCi, iv after 30 mins; format: ADME, organism-based; details: in vivo, 0.5 h

## CNc1ccc(/C=C/c2cnc(OCCOCCOCCF)c([125I])c2)cc1
Muscle tissue [1]
  Drug uptake: 1.04 % ID/g
Blood [2]
  Drug uptake: 4.37 % ID/g
Blood [3]
  Drug uptake: 2.21 % ID/g
Zone of skin [4]
  Drug uptake: 1.48 % ID/g
Heart [5]
  Drug uptake: 1.75 % ID/g
Spleen [6]
  Drug uptake: 1.27 % ID/g
Lung [7]
  Drug uptake: 1.85 % ID/g
Lung [8]
  Drug uptake: 6.85 % ID/g
Liver [9]
  Drug uptake: 7.7 % ID/g
Kidney [10]
  Drug uptake: 3.4 % ID/g
Liver [11]
  Drug uptake: 26.2 % ID/g
Thyroid gland [12]
  Drug uptake: 24.1 % ID/g
Spleen [13]
  Drug uptake: 4.41 % ID/g
Brain [14]
  Drug uptake: 1.23 % ID/g
Spleen [15]
  Drug uptake: 1.75 % ID/g
Kidney [16]
  Drug uptake: 9.03 % ID/g
Zone of skin [17]
  Drug uptake: 2.46 % ID/g
Brain [18]
  Drug uptake: 6.22 % ID/g
Blood [19]
  Drug uptake: 3.83 % ID/g
Lung [20]
  Drug uptake: 2.37 % ID/g
Muscle tissue [21]
  Drug uptake: 0.44 % ID/g
Heart [22]
  Drug uptake: 1.22 % ID/g
Liver [23]
  Drug uptake: 6.25 % ID/g
Spleen [24]
  Drug uptake: 2.49 % ID/g
Muscle tissue [25]
  Drug uptake: 0.85 % ID/g
Thyroid gland [26]
  Drug uptake: 215 % ID/g
Heart [27]
  Drug uptake: 2.54 % ID/g
Thyroid gland [28]
  Drug uptake: 5.74 % ID/g
Blood [29]
  Drug uptake: 2.88 % ID/g
Thyroid gland [30]
  Drug uptake: 38.1 % ID/g
Kidney [31]
  Drug uptake: 1.86 % ID/g
Kidney [32]
  Drug uptake: 2.81 % ID/g
Lung [33]
  Drug uptake: 3.01 % ID/g
Zone of skin [34]
  Drug uptake: 2.95 % ID/g
[35]
  logD: 2.2
Zone of skin [36]
  Drug uptake: 1.32 % ID/g
Muscle tissue [37]
  Drug uptake: 1.11 % ID/g
Brain [38]
  Drug uptake: 0.26 % ID/g
Heart [39]
  Drug uptake: 9.85 % ID/g
Brain [40]
  Drug uptake: 0.62 % ID/g
Brain [41]
  Ratio: 5.05
Liver [42]
  Drug uptake: 11.5 % ID/g

## CNc1ccc(/C=C/c2cnc(OCCO)c([125I])c2)cc1
Muscle tissue [1]
  Drug uptake: 1.15 % ID/g
Blood [2]
  Drug uptake: 4.14 % ID/g
Blood [3]
  Drug uptake: 1.96 % ID/g
Zone of skin [4]
  Drug uptake: 0.95 % ID/g
Heart [5]
  Drug uptake: 0.88 % ID/g
Spleen [6]
  Drug uptake: 1.08 % ID/g
Lung [7]
  Drug uptake: 1.58 % ID/g
Lung [8]
  Drug uptake: 7.43 % ID/g
Liver [9]
  Drug uptake: 5.62 % ID/g
Kidney [10]
  Drug uptake: 3.73 % ID/g
Liver [11]
  Drug uptake: 20.8 % ID/g
Thyroid gland [12]
  Drug uptake: 17.2 % ID/g
Spleen [13]
  Drug uptake: 4.08 % ID/g
Brain [14]
  Drug uptake: 0.88 % ID/g
Spleen [15]
  Drug uptake: 0.87 % ID/g
Kidney [16]
  Drug uptake: 11.5 % ID/g
Zone of skin [17]
  Drug uptake: 1.29 % ID/g
Brain [18]
  Drug uptake: 8.04 % ID/g
Blood [19]
  Drug uptake: 3.08 % ID/g
Lung [20]
  Drug uptake: 1.76 % ID/g
Muscle tissue [21]
  Drug uptake: 0.38 % ID/g
Heart [22]
  Drug uptake: 0.76 % ID/g
Liver [23]
  Drug uptake: 3.41 % ID/g
Spleen [24]
  Drug uptake: 1.34 % ID/g
Muscle tissue [25]
  Drug uptake: 0.42 % ID/g
Thyroid gland [26]
  Drug uptake: 99.9 % ID/g
Heart [27]
  Drug uptake: 1.5 % ID/g
Thyroid gland [28]
  Drug uptake: 6.31 % ID/g
Blood [29]
  Drug uptake: 1.81 % ID/g
Thyroid gland [30]
  Drug uptake: 36.7 % ID/g
Kidney [31]
  Drug uptake: 1.53 % ID/g
Kidney [32]
  Drug uptake: 2.16 % ID/g
Lung [33]
  Drug uptake: 2.67 % ID/g
Zone of skin [34]
  Drug uptake: 1.86 % ID/g
[35]
  logD: 2.2
Zone of skin [36]
  Drug uptake: 1.43 % ID/g
Muscle tissue [37]
  Drug uptake: 0.91 % ID/g
Brain [38]
  Drug uptake: 0.15 % ID/g
Heart [39]
  Drug uptake: 7.16 % ID/g
Brain [40]
  Drug uptake: 0.26 % ID/g
Brain [41]
  Ratio: 9.13
Liver [42]
  Drug uptake: 12.6 % ID/g

## OCCOc1ncc(/C=C/c2ccc(O)cc2)cc1[125I]
Muscle tissue [1]
  Drug uptake: 1.01 % ID/g
Blood [2]
  Drug uptake: 10.1 % ID/g
Blood [3]
  Drug uptake: 1.56 % ID/g
Zone of skin [4]
  Drug uptake: 0.64 % ID/g
Heart [5]
  Drug uptake: 0.65 % ID/g
Spleen [6]
  Drug uptake: 0.5 % ID/g
Lung [7]
  Drug uptake: 1.02 % ID/g
Lung [8]
  Drug uptake: 14.2 % ID/g
Liver [9]
  Drug uptake: 2.38 % ID/g
Kidney [10]
  Drug uptake: 10 % ID/g
Liver [11]
  Drug uptake: 18.3 % ID/g
Thyroid gland [12]
  Drug uptake: 3.99 % ID/g
Spleen [13]
  Drug uptake: 4.2 % ID/g
Brain [14]
  Drug uptake: 0.26 % ID/g
Spleen [15]
  Drug uptake: 0.5 % ID/g
Kidney [16]
  Drug uptake: 20.4 % ID/g
Zone of skin [17]
  Drug uptake: 0.62 % ID/g
Brain [18]
  Drug uptake: 0.99 % ID/g
Blood [19]
  Drug uptake: 3.92 % ID/g
Lung [20]
  Drug uptake: 1.34 % ID/g
Muscle tissue [21]
  Drug uptake: 0.12 % ID/g
Heart [22]
  Drug uptake: 0.51 % ID/g
Liver [23]
  Drug uptake: 2.63 % ID/g
Spleen [24]
  Drug uptake: 1.28 % ID/g
Muscle tissue [25]
  Drug uptake: 0.21 % ID/g
Thyroid gland [26]
  Drug uptake: 16 % ID/g
Heart [27]
  Drug uptake: 1.35 % ID/g
Thyroid gland [28]
  Drug uptake: 4.38 % ID/g
Blood [29]
  Drug uptake: 1.29 % ID/g
Thyroid gland [30]
  Drug uptake: 13 % ID/g
Kidney [31]
  Drug uptake: 2.5 % ID/g
Kidney [32]
  Drug uptake: 2.94 % ID/g
Lung [33]
  Drug uptake: 3.1 % ID/g
Zone of skin [34]
  Drug uptake: 1.36 % ID/g
[35]
  logD: 2.2
Zone of skin [36]
  Drug uptake: 0.37 % ID/g
Muscle tissue [37]
  Drug uptake: 0.59 % ID/g
Brain [38]
  Drug uptake: 0.06 % ID/g
Heart [39]
  Drug uptake: 6.66 % ID/g
Brain [40]
  Drug uptake: 0.09 % ID/g
Liver [42]
  Drug uptake: 5.15 % ID/g

Reference: ChEMBL document CHEMBL1147144, “Novel styrylpyridines as probes for SPECT imaging of amyloid plaques” (J Med Chem, 2007)
